In ChEMBL document CHEMBL5678818, “Discovery of potent SOS1 inhibitors that block RAS activation via disruption of the RAS-SOS1 interaction” (Proc Natl Acad Sci U S A, 2019):

What was measured:
[1] = molecular target: T1, Discoidin domain-containing receptor 2 (Homo sapiens) (UniProt Q16832); assay: Inhibition of DDR2 (unknown origin) assessed as residual activity at 1000 nM by KINOMEscan analysis relative to control
T1 sequence (whole entry): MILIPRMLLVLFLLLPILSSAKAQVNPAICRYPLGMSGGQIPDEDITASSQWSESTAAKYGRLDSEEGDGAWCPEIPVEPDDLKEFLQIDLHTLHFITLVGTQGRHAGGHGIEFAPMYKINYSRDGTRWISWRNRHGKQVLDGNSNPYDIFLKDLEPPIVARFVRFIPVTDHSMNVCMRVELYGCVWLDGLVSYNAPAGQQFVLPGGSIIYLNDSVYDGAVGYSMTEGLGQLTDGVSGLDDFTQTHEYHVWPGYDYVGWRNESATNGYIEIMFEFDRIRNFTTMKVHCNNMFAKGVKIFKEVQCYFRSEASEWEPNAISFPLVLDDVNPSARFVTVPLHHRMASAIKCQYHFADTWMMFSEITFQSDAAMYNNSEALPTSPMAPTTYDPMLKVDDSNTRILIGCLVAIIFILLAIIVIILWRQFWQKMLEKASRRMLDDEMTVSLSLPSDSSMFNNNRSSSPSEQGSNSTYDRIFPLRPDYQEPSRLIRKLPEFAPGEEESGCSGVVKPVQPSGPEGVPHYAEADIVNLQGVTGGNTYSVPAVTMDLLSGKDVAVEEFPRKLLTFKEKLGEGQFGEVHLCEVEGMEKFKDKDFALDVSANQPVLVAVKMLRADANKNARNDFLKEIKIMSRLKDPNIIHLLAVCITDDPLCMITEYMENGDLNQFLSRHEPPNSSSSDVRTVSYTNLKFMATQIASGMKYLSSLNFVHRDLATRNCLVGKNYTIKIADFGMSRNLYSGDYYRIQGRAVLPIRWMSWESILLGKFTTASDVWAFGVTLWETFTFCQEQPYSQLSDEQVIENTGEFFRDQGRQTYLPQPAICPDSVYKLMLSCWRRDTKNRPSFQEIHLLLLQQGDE

[2] = system: Epidermal growth factor receptor (Homo sapiens), P00533 [G719S]; assay: Inhibition of EGFR G719S mutant (unknown origin) assessed as residual activity at 1000 nM by KINOMEscan analysis relative to control
[3] = molecular target: T2, Serine/threonine-protein kinase TAO2 (Homo sapiens) (UniProt Q9UL54); assay: Inhibition of TAOK2 (unknown origin) assessed as residual activity at 1000 nM by KINOMEscan analysis relative to control
T2 sequence (whole entry): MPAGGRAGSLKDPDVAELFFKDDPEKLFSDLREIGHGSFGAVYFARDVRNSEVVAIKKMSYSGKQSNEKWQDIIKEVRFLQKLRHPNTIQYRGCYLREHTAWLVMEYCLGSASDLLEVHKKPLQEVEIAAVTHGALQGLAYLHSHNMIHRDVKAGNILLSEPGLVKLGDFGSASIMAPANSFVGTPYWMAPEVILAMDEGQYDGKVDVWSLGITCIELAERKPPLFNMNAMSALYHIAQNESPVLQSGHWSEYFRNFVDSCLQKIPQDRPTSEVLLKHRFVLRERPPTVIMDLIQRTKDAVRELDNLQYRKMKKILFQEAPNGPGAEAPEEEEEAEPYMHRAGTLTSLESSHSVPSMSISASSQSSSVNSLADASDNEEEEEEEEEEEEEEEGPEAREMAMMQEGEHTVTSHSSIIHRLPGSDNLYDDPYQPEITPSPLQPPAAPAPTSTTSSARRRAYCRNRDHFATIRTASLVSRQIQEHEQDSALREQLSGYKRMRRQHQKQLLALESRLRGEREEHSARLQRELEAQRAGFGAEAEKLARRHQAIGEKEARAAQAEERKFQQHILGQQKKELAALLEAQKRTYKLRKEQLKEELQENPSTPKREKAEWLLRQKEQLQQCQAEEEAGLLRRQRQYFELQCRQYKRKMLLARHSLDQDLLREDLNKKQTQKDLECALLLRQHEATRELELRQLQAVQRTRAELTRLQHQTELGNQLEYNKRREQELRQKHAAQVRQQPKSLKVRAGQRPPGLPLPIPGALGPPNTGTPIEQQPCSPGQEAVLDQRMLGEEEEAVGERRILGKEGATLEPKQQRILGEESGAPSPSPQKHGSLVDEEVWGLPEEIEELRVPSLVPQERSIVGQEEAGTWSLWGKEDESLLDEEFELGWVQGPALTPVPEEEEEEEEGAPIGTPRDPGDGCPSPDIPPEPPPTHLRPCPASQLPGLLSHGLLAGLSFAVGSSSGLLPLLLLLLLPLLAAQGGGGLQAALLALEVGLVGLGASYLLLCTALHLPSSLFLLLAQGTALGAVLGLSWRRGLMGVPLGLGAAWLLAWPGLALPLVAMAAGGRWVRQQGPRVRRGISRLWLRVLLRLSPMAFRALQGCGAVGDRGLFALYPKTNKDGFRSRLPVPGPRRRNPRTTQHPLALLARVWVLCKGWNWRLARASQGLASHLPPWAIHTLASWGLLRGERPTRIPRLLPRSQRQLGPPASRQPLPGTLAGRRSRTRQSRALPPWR

[4] = molecular target: Serine/threonine-protein kinase PAK 1 (Homo sapiens) (UniProt Q13153); assay: Inhibition of PAK1 (unknown origin) assessed as residual activity at 1000 nM by KINOMEscan analysis relative to control
[5] = molecular target: Homeodomain-interacting protein kinase 2 (Homo sapiens) (UniProt Q9H2X6); assay: Inhibition of HIPK2 (unknown origin) assessed as residual activity at 1000 nM by KINOMEscan analysis relative to control
[6] = system: Phosphatidylinositol 4,5-bisphosphate 3-kinase catalytic subunit alpha isoform (Homo sapiens), P42336 [H1047L]; assay: Inhibition of PIK3CA H1047L mutant (unknown origin) assessed as residual activity at 1000 nM by KINOMEscan analysis relative to control
[7] = molecular target: T3, Serine/threonine-protein kinase Chk1 (Homo sapiens) (UniProt O14757); assay: Inhibition of CHEK1 (unknown origin) assessed as residual activity at 1000 nM by KINOMEscan analysis relative to control
T3 sequence (whole entry): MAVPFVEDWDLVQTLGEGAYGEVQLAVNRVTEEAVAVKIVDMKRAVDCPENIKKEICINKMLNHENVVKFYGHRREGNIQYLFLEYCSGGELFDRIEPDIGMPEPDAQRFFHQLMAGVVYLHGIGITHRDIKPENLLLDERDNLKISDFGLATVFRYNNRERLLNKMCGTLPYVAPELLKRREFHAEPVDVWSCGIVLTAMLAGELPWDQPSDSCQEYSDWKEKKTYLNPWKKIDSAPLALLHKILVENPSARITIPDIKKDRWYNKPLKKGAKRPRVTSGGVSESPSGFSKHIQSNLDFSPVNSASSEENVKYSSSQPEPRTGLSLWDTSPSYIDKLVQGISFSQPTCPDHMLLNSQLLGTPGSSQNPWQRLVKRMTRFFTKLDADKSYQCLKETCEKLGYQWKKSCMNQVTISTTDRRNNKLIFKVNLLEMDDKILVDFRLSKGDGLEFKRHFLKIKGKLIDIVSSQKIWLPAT

Sequence of Serine/threonine-protein kinase PAK 1 (Homo sapiens) (Q13153 whole entry, looked up): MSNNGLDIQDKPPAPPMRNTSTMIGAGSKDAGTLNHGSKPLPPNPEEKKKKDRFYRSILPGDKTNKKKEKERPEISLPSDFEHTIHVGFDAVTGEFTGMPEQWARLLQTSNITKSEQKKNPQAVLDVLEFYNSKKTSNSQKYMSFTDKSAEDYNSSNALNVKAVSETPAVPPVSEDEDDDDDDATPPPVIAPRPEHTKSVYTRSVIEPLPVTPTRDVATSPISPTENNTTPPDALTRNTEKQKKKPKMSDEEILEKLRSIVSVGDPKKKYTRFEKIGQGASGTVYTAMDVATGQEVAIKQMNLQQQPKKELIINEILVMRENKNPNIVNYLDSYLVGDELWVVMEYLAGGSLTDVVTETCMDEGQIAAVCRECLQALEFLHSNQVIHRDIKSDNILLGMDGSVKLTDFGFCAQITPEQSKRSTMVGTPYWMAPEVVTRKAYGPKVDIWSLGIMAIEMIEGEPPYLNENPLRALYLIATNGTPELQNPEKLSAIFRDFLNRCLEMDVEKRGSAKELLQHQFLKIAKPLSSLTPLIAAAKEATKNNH
Sequence of Phosphatidylinositol 4,5-bisphosphate 3-kinase catalytic subunit alpha isoform (Homo sapiens), P42336 [H1047L] (P42336 whole entry H1047L, canonical isoform): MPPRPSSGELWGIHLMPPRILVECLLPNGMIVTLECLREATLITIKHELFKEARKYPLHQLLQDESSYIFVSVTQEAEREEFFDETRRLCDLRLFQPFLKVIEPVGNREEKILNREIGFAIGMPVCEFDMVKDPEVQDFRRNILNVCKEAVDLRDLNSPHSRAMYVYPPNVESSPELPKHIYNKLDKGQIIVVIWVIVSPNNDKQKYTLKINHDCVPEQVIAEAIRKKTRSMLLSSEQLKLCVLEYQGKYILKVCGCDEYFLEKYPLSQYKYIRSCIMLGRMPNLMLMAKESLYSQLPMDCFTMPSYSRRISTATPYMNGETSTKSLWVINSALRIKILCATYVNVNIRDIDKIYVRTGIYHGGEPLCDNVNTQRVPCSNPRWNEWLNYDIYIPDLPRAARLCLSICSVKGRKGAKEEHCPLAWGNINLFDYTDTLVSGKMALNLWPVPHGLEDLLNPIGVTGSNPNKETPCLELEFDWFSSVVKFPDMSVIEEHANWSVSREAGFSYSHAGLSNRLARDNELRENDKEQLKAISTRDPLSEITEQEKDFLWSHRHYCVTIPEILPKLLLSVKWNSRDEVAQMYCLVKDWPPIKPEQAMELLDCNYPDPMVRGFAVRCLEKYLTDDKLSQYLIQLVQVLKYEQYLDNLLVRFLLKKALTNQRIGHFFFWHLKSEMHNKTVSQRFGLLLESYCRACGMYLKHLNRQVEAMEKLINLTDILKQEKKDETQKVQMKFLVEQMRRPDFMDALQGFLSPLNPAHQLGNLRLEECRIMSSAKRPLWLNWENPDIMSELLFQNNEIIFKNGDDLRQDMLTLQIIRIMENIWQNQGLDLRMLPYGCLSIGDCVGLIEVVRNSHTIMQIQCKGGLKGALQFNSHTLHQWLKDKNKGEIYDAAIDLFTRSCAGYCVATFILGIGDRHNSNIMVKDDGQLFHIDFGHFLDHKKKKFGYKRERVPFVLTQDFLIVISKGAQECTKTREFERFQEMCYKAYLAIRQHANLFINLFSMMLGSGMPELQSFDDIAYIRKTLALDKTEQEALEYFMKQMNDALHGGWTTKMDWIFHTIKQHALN
Sequence of Homeodomain-interacting protein kinase 2 (Homo sapiens) (Q9H2X6 whole entry, looked up, canonical isoform): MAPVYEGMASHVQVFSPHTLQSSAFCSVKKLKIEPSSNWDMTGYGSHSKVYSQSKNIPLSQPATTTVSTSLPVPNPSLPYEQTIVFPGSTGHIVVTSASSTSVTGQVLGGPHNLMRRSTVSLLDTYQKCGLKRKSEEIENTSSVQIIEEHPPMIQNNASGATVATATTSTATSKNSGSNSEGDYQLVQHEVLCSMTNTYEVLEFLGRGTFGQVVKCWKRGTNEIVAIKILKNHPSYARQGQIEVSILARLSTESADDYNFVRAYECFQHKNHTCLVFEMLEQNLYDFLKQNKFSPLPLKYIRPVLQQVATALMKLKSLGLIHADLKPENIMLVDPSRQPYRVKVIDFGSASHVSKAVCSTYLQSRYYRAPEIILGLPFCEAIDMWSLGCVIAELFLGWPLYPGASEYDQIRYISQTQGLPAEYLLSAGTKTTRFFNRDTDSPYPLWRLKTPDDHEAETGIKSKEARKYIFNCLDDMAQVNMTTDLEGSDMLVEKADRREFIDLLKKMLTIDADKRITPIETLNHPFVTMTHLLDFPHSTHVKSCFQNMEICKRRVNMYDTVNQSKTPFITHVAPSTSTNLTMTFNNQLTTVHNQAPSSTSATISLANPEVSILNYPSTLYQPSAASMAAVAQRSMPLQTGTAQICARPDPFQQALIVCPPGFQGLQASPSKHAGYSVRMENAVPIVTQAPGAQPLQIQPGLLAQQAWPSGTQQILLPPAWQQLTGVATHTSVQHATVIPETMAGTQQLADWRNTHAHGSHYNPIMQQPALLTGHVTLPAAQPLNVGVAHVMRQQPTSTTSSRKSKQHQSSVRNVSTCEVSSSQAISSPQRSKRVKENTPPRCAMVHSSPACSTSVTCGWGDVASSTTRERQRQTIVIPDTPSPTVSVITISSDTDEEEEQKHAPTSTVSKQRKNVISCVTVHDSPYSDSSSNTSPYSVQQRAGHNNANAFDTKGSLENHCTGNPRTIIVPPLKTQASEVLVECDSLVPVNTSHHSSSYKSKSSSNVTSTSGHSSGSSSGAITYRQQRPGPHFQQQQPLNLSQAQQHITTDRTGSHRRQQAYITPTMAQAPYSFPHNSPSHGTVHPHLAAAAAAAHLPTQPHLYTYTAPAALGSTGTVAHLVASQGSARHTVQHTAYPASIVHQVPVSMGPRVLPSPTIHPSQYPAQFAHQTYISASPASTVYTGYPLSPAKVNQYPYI

Compound | Activity [1] [%] | Activity [2] [%] | Activity [3] [%] | Activity [4] [%] | Activity [5] [%] | Activity [6] [%] | Activity [7] [%]
COc1cc2nc(C)nc(N[C@H](C)c3cccc(-c4cn[nH]c4)c3)c2cc1OC | 97 | 76 | 78 | 62 | 100 | 96 | 98
COc1cc2ncnc(N[C@H](C)c3cccc4ccccc34)c2cc1OC | 67 | 1.2 | 90 | 90 | 98 | 92 | 100
